These molecules were tested against Poly [ADP-ribose] polymerase 1 (Homo sapiens, UniProt P09874) (assay: PARP ELISA Assay). Details: pH 8; 22 °C.
Protocol: The assay was performed in 96-well ELISA plates according to instructions provided with a commercially available PARP inhibition assay kit (Trevigen, Gaithersburg, MD). After incubation, incorporated biotin was detected by peroxidase-conjugated streptavidin and TACS Sapphire substrate.

Sequence of Poly [ADP-ribose] polymerase 1 (P09874 whole entry): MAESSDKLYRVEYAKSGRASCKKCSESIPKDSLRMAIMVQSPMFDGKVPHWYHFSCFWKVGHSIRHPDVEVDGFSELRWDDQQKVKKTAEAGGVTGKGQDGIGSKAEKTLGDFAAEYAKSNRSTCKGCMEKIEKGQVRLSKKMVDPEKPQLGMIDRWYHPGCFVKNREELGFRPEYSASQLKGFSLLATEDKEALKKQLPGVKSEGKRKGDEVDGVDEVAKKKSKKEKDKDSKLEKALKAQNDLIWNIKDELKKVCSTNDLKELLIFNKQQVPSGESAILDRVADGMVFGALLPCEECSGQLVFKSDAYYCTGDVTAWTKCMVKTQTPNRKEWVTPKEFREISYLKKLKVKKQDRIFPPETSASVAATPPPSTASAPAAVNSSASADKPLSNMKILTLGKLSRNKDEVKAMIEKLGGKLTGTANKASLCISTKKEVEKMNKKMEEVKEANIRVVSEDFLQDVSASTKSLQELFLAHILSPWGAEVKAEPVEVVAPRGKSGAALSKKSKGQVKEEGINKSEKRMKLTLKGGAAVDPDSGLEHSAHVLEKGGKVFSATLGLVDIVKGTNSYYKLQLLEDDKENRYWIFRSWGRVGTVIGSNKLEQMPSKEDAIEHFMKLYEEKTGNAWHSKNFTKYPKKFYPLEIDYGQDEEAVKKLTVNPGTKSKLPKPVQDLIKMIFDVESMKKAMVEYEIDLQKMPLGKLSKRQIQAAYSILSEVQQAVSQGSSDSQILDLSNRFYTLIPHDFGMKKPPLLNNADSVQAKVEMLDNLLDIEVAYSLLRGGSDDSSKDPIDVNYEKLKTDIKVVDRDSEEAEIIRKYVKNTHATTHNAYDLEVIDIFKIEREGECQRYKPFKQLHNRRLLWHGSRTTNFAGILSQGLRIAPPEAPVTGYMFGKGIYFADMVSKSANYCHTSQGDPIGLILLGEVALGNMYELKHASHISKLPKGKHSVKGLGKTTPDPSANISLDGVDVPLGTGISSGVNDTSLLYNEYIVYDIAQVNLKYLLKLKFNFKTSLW

IC50 [µM]	Compound
0.4	O=C(CCCN1CCOCC1)Nc1ccc2c(c1)-c1[nH]c(=O)c3ccccc3c1C2 [4-(morpholin-4-yl)-N-{8-oxo-9-azatetracyclo[8.7.0.0^{2,7}.0^{11,16}]heptadeca-1(10),2(7),3,5,11(16),12,14-heptaen-13-yl}butanamide]
0.8	C[N+]1(CCCNS(=O)(=O)c2ccc3c(c2)Cc2c-3[nH]c(=O)c3ccccc23)CCOCC1 [4-methyl-4-[3-({8-oxo-9-azatetracyclo[8.7.0.0^{2,7}.0^{11,16}]heptadeca-1(10),2(7),3,5,11(16),12,14-heptaene-14-}sulfonamido)propyl]morpholin-4-ium iodide]
0.45	O=c1[nH]c2c(c3ccccc13)Cc1cc(S(=O)(=O)NN3CCOCC3)c(F)cc1-2 [13-fluoro-N-(morpholin-4-yl)-8-oxo-9-azatetracyclo[8.7.0.0^{2,7}.0^{11,16}]heptadeca-1(10),2(7),3,5,11(16),12,14-heptaene-14-sulfonamide]

From BindingDB's records for doi:10.1021/jm0502891 (Inotek Pharmaceuticals, 2005)
